Data on 48 molecules can be found in a melting point compilation (Tetko et al.).

Turning to `N#Cc1ccc(SCCC(=O)O)cc1`, the melting point – broadly, the temperature of the solid-liquid transition – is 86 to 88 °C.
`O=C(O)c1c(F)cccc1Br` came in with a melting point of 153 to 155 °C.
As for `Nc1nc(-c2cc(Br)cs2)cs1`, the figure is 149 to 151 °C.
As for `O=C(O)C1(c2ccc(F)cc2)CCOCC1`, the figure is 156 to 158 °C; as for `CC(=O)c1ccc(S(=O)(=O)N(C)C)cc1`, 99 to 101 °C.
With `O=C(O)CN1C(=O)C2CC=CCC2C1=O` (stereo not drawn), the melting point lay within 83 to 85 °C.
As for `c1ccc(CNc2nc3ccccc3[nH]2)cc1`, the melting point fell in the range of 147 to 149 °C.
`Cc1ccccc1-c1nnc(S)o1` gave a melting point of 188 to 190 °C.
In turn, `Cn1cc(N2CCNCC2=O)cn1` returned a melting point of 123 to 125 °C.
As for `COc1cc([N+](=O)[O-])cc2sc(N)nc12`, the figure is 279 to 281 °C; as for `O=C(O)CCC(=O)NCC(=O)c1ccccc1F`, 156 to 158 °C.
Molecule `Cc1csc2nc(CCl)cc(=O)n12` returned a melting point of 100 to 104 °C.
As for `c1nnc(C2CC2)n1C1CC1`, the figure is 74 to 76 °C; as for `CCc1n[nH]c(C(=O)O)c1Cl`, 199 to 201 °C; as for `Sc1nnc(CN2CCCC2)n1-c1ccc(Cl)cc1`, 260 to 262 °C.
As for `O=C(O)c1ccsc1C(=O)O`, the figure is 268 to 270 °C; as for `N#Cc1ccc(Cn2cnc(N)n2)cc1`, 169 to 171 °C; as for `Cc1ccc(C(=O)O)cc1NS(=O)(=O)c1ccc(F)cc1`, 234 to 236 °C.
Take `CN(CC(=O)NC1CC1)C(=O)CCl`: the melting point fell in the range of 113 to 115 °C.
Take `CC(C)c1noc2nc(-c3cccnc3)cc(C(=O)O)c12`: the melting point lay in the range of 279 to 281 °C.
`O=C(O)c1cccc(-c2nnco2)c1` returned a melting point of 239 to 241 °C.
On to `N#Cc1cc(N)ncc1Br`, for which the melting point lay in the range of 184 to 186 °C.
As for `COc1ccc(NC(=O)CCCl)cc1`, the figure is 120 to 122 °C; as for `CCN(CC)c1ccc(S(N)(=O)=O)cc1N`, 102 to 104 °C; as for `Cc1cc(C=O)c(C)n1CC#N`, 122 to 124 °C.
As for `CC1(c2ccc(Br)cc2)CC(=O)OC1=O` (stereo not drawn), the figure is 69 to 71 °C.
In turn, `O=C(CN1C(=O)CCC1=O)c1ccccc1Cl` displayed a melting point of 118 to 120 °C.
As for `O=Cc1cc2ccccc2nc1N1CCCCC1`, the figure is 118 to 120 °C; as for `CCOC(=O)c1cc(CC)sc1NC(=O)C(C)Cl` (stereo not drawn), 57 to 59 °C.
As for `O=C(O)C(Oc1cc(Cl)ccc1Cl)c1ccccc1` (stereo not drawn), the figure is 144 to 146 °C.
Molecule `COc1nc2cc(N)ccc2o1` displayed a melting point of 123 to 125 °C.
As for `CC(=O)Nc1cc(C#N)ccc1S(C)(=O)=O`, the figure is 145 to 147 °C; as for `O=[N+]([O-])c1ccc(Cl)c(S(=O)(=O)Nc2nc3ccc(Cl)cc3s2)c1`, 328 to 330 °C.
As to `CC(C)CCOc1ccc(C(=O)NN)cc1`, the melting point fell in the range of 108 to 110 °C.
As for `CC1CCC(Cn2c(N)cc(=O)[nH]c2=O)CC1` (stereo not drawn), the figure is 239 to 241 °C; as for `COC(=O)Cc1csc(N)n1`, 123 to 125 °C; as for `COC(=O)C(O)c1cccc(Cl)c1` (stereo not drawn), 80 to 82 °C.
The molecule `CC(C)(N)CN1CCN(c2ccccc2)CC1` came in with a melting point of 84 to 86 °C.
As for `CCCCn1c(N)cc(=O)[nH]c1=O`, the figure is 238 to 240 °C; as for `O=C1NC(=O)C(c2cccc(O)c2)N1` (stereo not drawn), 213 to 215 °C.
Turning to `NC(=O)NC(CC(=O)O)c1cccc(Br)c1` (stereo not drawn), the melting point lay in the range of 159 to 161 °C.
Turning to `N#Cc1ccc(S(=O)(=O)Cl)c([N+](=O)[O-])c1`, the melting point lay in the range of 119 to 121 °C.
As for `O=C(Nc1ccccc1CO)c1ccco1`, the figure is 95 to 97 °C; as for `CCNS(=O)(=O)c1ccc(Cl)nc1`, 73 to 75 °C; as for `CCOC(=O)/C(C#N)=C\Nc1cc(F)ccc1F`, 164 to 166 °C.
Molecule `COc1ccc(-c2nc(CN)cs2)cc1` registered a melting point of 67 to 69 °C.
For `O=C(O)c1c(Cl)cc(C(F)(F)F)cc1Cl`, the melting point was in the range of 140 to 142 °C.
Turning to `Cc1ccc(O)c(C(=O)N2CCC(C(=O)O)CC2)c1`, the melting point is 184 to 186 °C.
